Values after ≈ are worked out from the molar mass of the structure shown. Values joined by “and” are separate entries in the source; they are usually repeats but may differ in a detail not shown here. Equal values may be shown once.
System: HeLa-ACE2 cells
Assay: not given
Conditions: protocol HeLa-ACE2 cytotoxicity

SMILES | CC50 | cc10
CC(C)[C@@H](Nc1ncnc2[nH]c(-c3cnn(CCC(N)=O)c3)cc12)c1ccc2c(c1)OCCO2 [ASAP-0008482] | > 20 µM | –
CC(C)[C@@H](Nc1ncnc2[nH]c(-c3cnn(CC(=O)N(C)C)c3)cc12)c1ccc2c(c1)OCCO2 [ASAP-0008485] | > 20 µM | > 20.0 µM

Same assay, conditions: protocol HeLa-ACE2 cytotoxicity; highest measured response of the dose series

SMILES | perc_max_measured
CC(C)[C@@H](Nc1ncnc2[nH]c(-c3cnn(CCC(N)=O)c3)cc12)c1ccc2c(c1)OCCO2 [ASAP-0008482] | 111.916% and 92.58%
CC(C)[C@@H](Nc1ncnc2[nH]c(-c3cnn(CC(=O)N(C)C)c3)cc12)c1ccc2c(c1)OCCO2 [ASAP-0008485] | 96.628% and 85.957%

Same assay, conditions: protocol HeLa-ACE2 cytotoxicity; lowest measured response of the dose series

SMILES | perc_min_measured
CC(C)[C@@H](Nc1ncnc2[nH]c(-c3cnn(CCC(N)=O)c3)cc12)c1ccc2c(c1)OCCO2 [ASAP-0008482] | 82.711% and 77.006%
CC(C)[C@@H](Nc1ncnc2[nH]c(-c3cnn(CC(=O)N(C)C)c3)cc12)c1ccc2c(c1)OCCO2 [ASAP-0008485] | 73.752% and 75.897%

System: SARS-CoV-2, isolate USA-WA1/2020
Assay: microbe, parasite or virus in culture
Format: cell-based
Conditions: HeLa-ACE2 SARS-CoV-2 antiviral effect without P-gp inhibitor; maximum measured response of dose series

SMILES | perc_max_measured
CC(C)[C@@H](Nc1ncnc2[nH]c(-c3cnn(CCC(N)=O)c3)cc12)c1ccc2c(c1)OCCO2 [ASAP-0008482] | 121.913% and 112.19%
CC(C)[C@@H](Nc1ncnc2[nH]c(-c3cnn(CC(=O)N(C)C)c3)cc12)c1ccc2c(c1)OCCO2 [ASAP-0008485] | 120.313% and 102.904%

Same assay, conditions: HeLa-ACE2 SARS-CoV-2 antiviral effect without P-gp inhibitor; minimum measured response of dose series

SMILES | perc_min_measured
CC(C)[C@@H](Nc1ncnc2[nH]c(-c3cnn(CCC(N)=O)c3)cc12)c1ccc2c(c1)OCCO2 [ASAP-0008482] | 97.771% and 96.19%
CC(C)[C@@H](Nc1ncnc2[nH]c(-c3cnn(CC(=O)N(C)C)c3)cc12)c1ccc2c(c1)OCCO2 [ASAP-0008485] | 86.961% and 72.697%

Same assay, conditions: HeLa-ACE2 SARS-CoV-2 antiviral effect without P-gp inhibitor; read-out: ec50

SMILES | EC50
CC(C)[C@@H](Nc1ncnc2[nH]c(-c3cnn(CCC(N)=O)c3)cc12)c1ccc2c(c1)OCCO2 [ASAP-0008482] | > 20 µM
CC(C)[C@@H](Nc1ncnc2[nH]c(-c3cnn(CC(=O)N(C)C)c3)cc12)c1ccc2c(c1)OCCO2 [ASAP-0008485] | > 20 µM

Same assay, conditions: HeLa-ACE2 SARS-CoV-2 antiviral effect without P-gp inhibitor; read-out: ec90

SMILES | EC90
CC(C)[C@@H](Nc1ncnc2[nH]c(-c3cnn(CCC(N)=O)c3)cc12)c1ccc2c(c1)OCCO2 [ASAP-0008482] | > 20 µM
CC(C)[C@@H](Nc1ncnc2[nH]c(-c3cnn(CC(=O)N(C)C)c3)cc12)c1ccc2c(c1)OCCO2 [ASAP-0008485] | > 20 µM

System: not listed separately
Assay: LogD
Conditions: pH 7.4; In vitro LogD

SMILES | logd
CC(C)[C@@H](Nc1ncnc2[nH]c(-c3cnn(CCC(N)=O)c3)cc12)c1ccc2c(c1)OCCO2 [ASAP-0008482] | 3.0
CC(C)[C@@H](Nc1ncnc2[nH]c(-c3cnn(CC(=O)N(C)C)c3)cc12)c1ccc2c(c1)OCCO2 [ASAP-0008485] | 2.3

System: not listed separately
Assay: Hepatic microsomal stability, HLM
Format: in vitro ADME, human
Conditions: In vitro human liver microsomal stability

SMILES | clint | perc_remaining | t_half
CC(C)[C@@H](Nc1ncnc2[nH]c(-c3cnn(CCC(N)=O)c3)cc12)c1ccc2c(c1)OCCO2 [ASAP-0008482] | 99.0 µL/min/mg | 19.0% | 16.9 min
CC(C)[C@@H](Nc1ncnc2[nH]c(-c3cnn(CC(=O)N(C)C)c3)cc12)c1ccc2c(c1)OCCO2 [ASAP-0008485] | 142.0 µL/min/mg | 9.0% | 11.8 min

Same assay, conditions: In vitro human liver microsomal stability; no cofactor

SMILES | perc_remaining_no_cofactor
CC(C)[C@@H](Nc1ncnc2[nH]c(-c3cnn(CCC(N)=O)c3)cc12)c1ccc2c(c1)OCCO2 [ASAP-0008482] | 108.0%
CC(C)[C@@H](Nc1ncnc2[nH]c(-c3cnn(CC(=O)N(C)C)c3)cc12)c1ccc2c(c1)OCCO2 [ASAP-0008485] | 110.0%

System: not listed separately
Assay: In vitro kinetic solubility
Conditions: In vitro kinetic solubility, ph 7.4

SMILES | solubility_mean
CC(C)[C@@H](Nc1ncnc2[nH]c(-c3cnn(CCC(N)=O)c3)cc12)c1ccc2c(c1)OCCO2 [ASAP-0008482] | 236 µM (≈ 109 µg/mL)
CC(C)[C@@H](Nc1ncnc2[nH]c(-c3cnn(CC(=O)N(C)C)c3)cc12)c1ccc2c(c1)OCCO2 [ASAP-0008485] | 210 µM (≈ 99.9 µg/mL)

System: not listed separately
Assay: in vitro
Conditions: human, hela-ace2 cells, 50.0

SMILES | CC50 at 24 h
CC(C)[C@@H](Nc1ncnc2[nH]c(-c3cnn(CCC(N)=O)c3)cc12)c1ccc2c(c1)OCCO2 [ASAP-0008482] | > 20 µM
CC(C)[C@@H](Nc1ncnc2[nH]c(-c3cnn(CC(=O)N(C)C)c3)cc12)c1ccc2c(c1)OCCO2 [ASAP-0008485] | > 20 µM

System: not listed separately
Assay: Permeability Papp (AB) MDR1/MDCKII
Conditions: In vitro MDR1-MDCKII permeability, A to B, mean

SMILES | papp_a_to_b_mean
CC(C)[C@@H](Nc1ncnc2[nH]c(-c3cnn(CCC(N)=O)c3)cc12)c1ccc2c(c1)OCCO2 [ASAP-0008482] | 1.46 ×10⁻⁶ cm/s
CC(C)[C@@H](Nc1ncnc2[nH]c(-c3cnn(CC(=O)N(C)C)c3)cc12)c1ccc2c(c1)OCCO2 [ASAP-0008485] | 1.15 ×10⁻⁶ cm/s

Same assay, conditions: In vitro MDR1-MDCKII permeability, recovery A to B, mean

SMILES | perc_recovery_a_to_b_mean
CC(C)[C@@H](Nc1ncnc2[nH]c(-c3cnn(CCC(N)=O)c3)cc12)c1ccc2c(c1)OCCO2 [ASAP-0008482] | 88.9%
CC(C)[C@@H](Nc1ncnc2[nH]c(-c3cnn(CC(=O)N(C)C)c3)cc12)c1ccc2c(c1)OCCO2 [ASAP-0008485] | 80.8%

System: not listed separately
Assay: Hepatic microsomal stability, MLM
Format: in vitro ADME
Conditions: In vitro mouse liver microsomal stability

SMILES | clint | perc_remaining | t_half
CC(C)[C@@H](Nc1ncnc2[nH]c(-c3cnn(CCC(N)=O)c3)cc12)c1ccc2c(c1)OCCO2 [ASAP-0008482] | 62.0 µL/min/mg | 36.0% | 27.1 min
CC(C)[C@@H](Nc1ncnc2[nH]c(-c3cnn(CC(=O)N(C)C)c3)cc12)c1ccc2c(c1)OCCO2 [ASAP-0008485] | 59.0 µL/min/mg | 39.0% | 28.1 min

Same assay, conditions: In vitro mouse liver microsomal stability; no cofactor

SMILES | perc_remaining_no_cofactor
CC(C)[C@@H](Nc1ncnc2[nH]c(-c3cnn(CCC(N)=O)c3)cc12)c1ccc2c(c1)OCCO2 [ASAP-0008482] | 106.0%
CC(C)[C@@H](Nc1ncnc2[nH]c(-c3cnn(CC(=O)N(C)C)c3)cc12)c1ccc2c(c1)OCCO2 [ASAP-0008485] | 98.0%

From article doi:10.1101/2024.08.19.608619, “Discovery of potent SARS-CoV-2 nsp3 macrodomain inhibitors uncovers lack of translation to cellular antiviral response” (bioRxiv, 2024)
